Counter-ions that a name gives are not always drawn.
Columns and labels:
Assay type in all cases: physicochemical
[1] = pKa (physicochemistry of the actives)
From the text: The synchronous release of the combination of actives comprising the once-daily pharmaceutical compositions of the present invention is particularly surprising when one considers that the differing physicochemical characteristics of the active ingredients and the likely differences in the permeability coefficients for the combination of active drugs would result in a differing rate and extent of drug release for each of the drugs chosen to be part of the combination. Accordingly, it was expected that it would be difficult to optimize the release kinetics of the combination of drugs contemplated without one drug potentially negatively influencing the release kinetics of the other drug of the combination.

[2] = Dissolution, 900 ml 0.1N HCl, USP Apparatus 1, 75 rpm, 37° C.; conditions: Example 29 homogenous CR tablet (batch no. 08070T)
Protocol: (§1) The dissolution profile of the above pharmaceutical composition was determined under the dissolution conditions described below in Tables 1A, 1B, and 1C.

[3] = Dissolution, 900 ml pH 6.8 phosphate buffer, USP Apparatus 1, 75 rpm, 37° C.; conditions: Example 29 homogenous CR tablet (batch no. 08070T)
Protocol: as §1

[4] = Dissolution, 900 ml pH 7.5 phosphate buffer, Apparatus 1, 75 rpm, 37 C.
Protocol: FIG. 27 is a graph depicting the dissolution profile in 900 ml of pH 7.5 phosphate buffer using USP Apparatus 1 at 75 rpm at 37° C. of the composition described in Example 27.
FIG. 28 is a graph depicting the dissolution profile in 900 ml of pH 7.5 phosphate buffer using USP Apparatus 1 at 75 rpm at 37° C. of the composition described in Example 28.
The dissolution profile of the above pharmaceutical composition was determined under the dissolution conditions described below in Table 27.
The dissolution profile of the above pharmaceutical composition was determined under the dissolution conditions described below in Table 28. The result of the dissolution testing is presented as a % of the total tramadol HCl and meloxicam in the controlled release tablet (batch 1258-175) and also depicted in FIG. 28.

## CC(NC(C)(C)C)C(=O)c1cccc(Cl)c1 (stereo not shown) [Bupropion HBr, bupropion hydrobromide]
[1]
  pKa: 7.8

## OCCOCCN1CCN(C2=Nc3ccccc3Sc3ccccc32)CC1 [Quetiapine Fumarate, quetiapine fumarate]
[1]
  pKa: 3.3

## COc1cccc(C2(O)CCCCC2CN(C)C)c1 (stereo not shown) [Tramadol HCl]
[2]; 0.5 hr
  % Released: 18%
[2]; 1 hr
  % Released: 28%
[2]; 2 hr
  % Released: 42%
[2]; 3 hr
  % Released: 53%
[2]; 4 hr
  % Released: 62%
[2]; 5 hr
  % Released: 70%
[2]; 6 hr
  % Released: 76%
[2]; 8 hr
  % Released: 86%
[2]; 10 hr
  % Released: 93%
[2]; 12 hr
  % Released: 97%
[3]; 0.5 hr
  % Released: 19%
[3]; 1 hr
  % Released: 29%
[3]; 2 hr
  % Released: 44%
[3]; 3 hr
  % Released: 55%
[3]; 4 hr
  % Released: 65%
[3]; 5 hr
  % Released: 72%
[3]; 6 hr
  % Released: 79%
[3]; 8 hr
  % Released: 90%
[3]; 10 hr
  % Released: 98%
[4]; 2 hrs, Example 27 controlled release tablet (batch 1258-171), ethylcellulose coating
  % Release: 51%
[4]; 2 hrs, Example 28 controlled release tablet (batch 1258-175), Kollicoat SR 30D coating
  % Release: 0%
[4]; 4 hrs, Example 27 controlled release tablet (batch 1258-171), ethylcellulose coating
  % Release: 70%
[4]; 4 hrs, Example 28 controlled release tablet (batch 1258-175), Kollicoat SR 30D coating
  % Release: 7%
[4]; 8 hrs, Example 27 controlled release tablet (batch 1258-171), ethylcellulose coating
  % Release: 96%
[4]; 8 hrs, Example 28 controlled release tablet (batch 1258-175), Kollicoat SR 30D coating
  % Release: 61%
[4]; 10 hrs, Example 27 controlled release tablet (batch 1258-171), ethylcellulose coating
  % Release: 100%
[4]; 10 hrs, Example 28 controlled release tablet (batch 1258-175), Kollicoat SR 30D coating
  % Release: 74%
[4]; 16 hrs, Example 27 controlled release tablet (batch 1258-171), ethylcellulose coating
  % Release: 100%
[4]; 16 hrs, Example 28 controlled release tablet (batch 1258-175), Kollicoat SR 30D coating
  % Release: 84%

— patent publication US20110052684A1, “PHARMACEUTICAL COMPOSITION” (priority 2008, published 2011)
